From patent EP2518054A1, “AMIDE COMPOUND” (Takeda Pharmaceutical Company Limited, priority 2009, dated 2011) come the findings set out here.

The EC50 is the midpoint of the concentration-response curve.

One assay deals with T1, human GPR52 (Homo sapiens, UniProt Q9Y2T5).
T1 construct: expressed in transfected cells; host or cells: CHO(dhfr-) cells
T1 sequence (Q9Y2T5 whole entry): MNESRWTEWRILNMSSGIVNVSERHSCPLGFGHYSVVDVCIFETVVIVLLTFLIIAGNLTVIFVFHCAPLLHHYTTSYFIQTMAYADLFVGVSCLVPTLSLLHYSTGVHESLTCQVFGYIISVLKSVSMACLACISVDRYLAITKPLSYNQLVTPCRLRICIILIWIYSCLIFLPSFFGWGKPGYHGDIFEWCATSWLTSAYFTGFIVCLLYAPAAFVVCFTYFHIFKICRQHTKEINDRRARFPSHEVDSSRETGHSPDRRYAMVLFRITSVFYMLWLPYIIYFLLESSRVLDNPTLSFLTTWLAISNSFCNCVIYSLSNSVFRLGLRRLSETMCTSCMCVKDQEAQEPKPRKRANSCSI
The assay is described as follows: Increase of intracellular cAMP concentration in human GPR52-expressing CHO cell (AlphaScreen cAMP assay). The following applies: CHO, 1µM test compound; 100% = cAMP with 1 µM Reference Example 79, 0% = DMSO; human GPR52-expressing CHO(dhfr-) cells, 37°C, 30 min; read-out: GPR52 agonist activity (%). It counts as cell-based. The procedure: Increase of intracellular cAMP concentration in human GPR52-expressing CHO cell
Using OptiPlate-384 (PerkinElmer Inc.), 1×10^4 human GPR52-expressing CHO(dhfr-) cells were incubated together with various concentration(10^-5µM - 10µm) of a test compound in an assay buffer (30 µL, HBSS (containing Ca^2+ and Mg^2+), 0.5% BSA, 100 µM IBMX, 100 µM Ro20-1724, 5 mM HEPES (pH 7.55)) at 37°C for 30 min. Thereafter, according to the protocol of AlphaScreen CAMP Assay Kit (PerkinElmer Inc.), the intracellular cAMP concentration was measured by EnVision (PerkinElmer Inc.). The GPR52 agonist activity was calculated, assuming the intracellular cAMP concentration in the presence of […] N-(2-hydroxyethyl)-3-[2-[3-(trifluoromethyl)benzyl]-1-benzofuran-4-yl]benzamide (Reference Example 79) to be 100% and assuming the intracellular cAMP concentration when DMSO was added instead of the test compound to be 0%.
On the technique in general: In Alpha technology, singlet oxygen from a donor bead excites a nearby acceptor bead.
On to `COCCNC(=O)c1cn(-c2cccc3cc(Cc4cccc(C(F)(F)F)c4)sc23)nc1C` [Example 14, N-(2-methoxyethyl)-3-methyl-1-[2-[3-(trifluoromethyl)benzyl]-1-benzothiophen-7-yl]-1H-pyrazole-4-carboxamide], for which the activity at 1 µM was 87%.

Regarding `O=C(NCCO)c1sc(-c2cccc3cc(Cc4cccc(C(F)(F)F)c4)sc23)nc1C(F)(F)F` [Example 87, N-(2-hydroxyethyl)-4-(trifluoromethyl)-2-[2-[3-(trifluoromethyl)benzyl]-1-benzothiophen-7-yl]-1,3-thiazole-5-carboxamide], the activity at 1 µM amounted to 92%.

Regarding `O=C(NCCO)c1sc(-c2cccc3nn(Cc4cccc(C(F)(F)F)c4)cc23)nc1C(F)(F)F` [Example 88, N-(2-hydroxyethyl)-4-(trifluoromethyl)-2-[2-[3-(trifluoromethyl)benzyl]-2H-indazol-4-yl]-1,3-thiazole-5-carboxamide], the activity at 1 µM is 83%.

Regarding `Cc1nn(-c2ccc(F)c3cc(Cc4cc(F)cc(Cl)c4)sc23)c(CO)c1C(=O)NCC(N)=O` [Example 89, N-(2-amino-2-oxoethyl)-1-[2-(3-chloro-5-fluorobenzyl)-4-fluoro-1-benzothiophen-7-yl]-5-(hydroxymethyl)-3-methyl-1H-pyrazole-4-carboxamide], the activity at 1 µM was determined as 99%.

`Cc1nn(-c2ccc(F)c3cc(Cc4cc(F)cc(Cl)c4)sc23)c(CO)c1C(=O)NCCO` [Example 90, 1-[2-(3-chloro-5-fluorobenzyl)-4-fluoro-1-benzothiophen-7-yl]-N-(2-hydroxyethyl)-5-(hydroxymethyl)-3-methyl-1H-pyrazole-4-carboxamide]: the activity at 1 µM was found to be 104%.

Consider `Cc1nn(-c2ccc(F)c3cc(Cc4cc(F)cc(Cl)c4)sc23)c(CO)c1C(N)=O` [Example 91, 1-[2-(3-chloro-5-fluorobenzyl)-4-fluoro-1-benzothiophen-7-yl]-5-(hydroxymethyl)-3-methyl-1H-pyrazole-4-carboxamide], for which the activity at 1 µM is 99%.

Consider `Cc1cccc(Cc2cc3cccc(-n4nc(C)c(C(=O)NCC(N)=O)c4C)c3s2)c1` [Example 93, N-(2-amino-2-oxoethyl)-3,5-dimethyl-1-[2-(3-methylbenzyl)-1-benzothiophen-7-yl]-1H-pyrazole-4-carboxamide], for which the activity at 1 µM is 70%.

As to `Cc1cccc(Cc2cc3cccc(-n4nc(C)c(C(=O)NCCO)c4C)c3s2)c1` [Example 94, N-(2-hydroxyethyl)-3,5-dimethyl-1-[2-(3-methylbenzyl)-1-benzothiophen-7-yl]-1H-pyrazole-4-carboxamide], the activity at 1 µM stood at 96%.

For the compound `Cc1cccc(Cc2cc3cccc(-n4nc(C)c(C(N)=O)c4C)c3s2)c1` [Example 95, 3,5-dimethyl-1-[2-(3-methylbenzyl)-1-benzothiophen-7-yl]-1H-pyrazole-4-carboxamide], the activity at 1 µM amounted to 95%.

In the case of `COc1cc(Cc2cc3cccc(-n4nc(C)c(C(=O)NCC(N)=O)c4C)c3s2)ccc1F` [Example 96, N-(2-amino-2-oxoethyl)-1-[2-(4-fluoro-3-methoxybenzyl)-1-benzothiophen-7-yl]-3,5-dimethyl-1H-pyrazole-4-carboxamide], the activity at 1 µM turned out to be 84%.

Regarding `COc1cc(Cc2cc3cccc(-n4nc(C)c(C(=O)NCCO)c4C)c3s2)ccc1F` [Example 97, 1-[2-(4-fluoro-3-methoxybenzyl)-1-benzothiophen-7-yl]-N-(2-hydroxyethyl)-3,5-dimethyl-1H-pyrazole-4-carboxamide], the activity at 1 µM was 94%.

As for `COc1cc(Cc2cc3cccc(-n4nc(C)c(C(N)=O)c4C)c3s2)ccc1F` [Example 98, 1-[2-(4-fluoro-3-methoxybenzyl)-1-benzothiophen-7-yl]-3,5-dimethyl-1H-pyrazole-4-carboxamide], the activity at 1 µM amounted to 98%.

Consider `Cc1nn(-c2cccc3cc(Cc4cc(F)cc(F)c4)sc23)c(C)c1C(=O)NCCO` [Example 99, 1-[2-(3,5-difluorobenzyl)-1-benzothiophen-7-yl]-N-(2-hydroxyethyl)-3,5-dimethyl-1H-pyrazole-4-carboxamide], for which the activity at 1 µM came out at 99%.

With `Cc1nn(-c2cccc3cc(Cc4cc(F)cc(F)c4)sc23)c(C)c1C(N)=O` [Example 100, 1-[2-(3,5-difluorobenzyl)-1-benzothiophen-7-yl]-3,5-dimethyl-1H-pyrazole-4-carboxamide], the activity at 1 µM was 104%.

For the compound `Cc1nn(-c2cccc3cc(Cc4cc(F)cc(F)c4)sc23)c(C)c1C(=O)NCC(N)=O` [Example 101, N-(2-amino-2-oxoethyl)-1-[2-(3,5-difluorobenzyl)-1-benzothiophen-7-yl]-3,5-dimethyl-1H-pyrazole-4-carboxamide], the activity at 1 µM was determined as 96%.

With `CNC(=O)c1c(C)nn(-c2ccc(F)c3cc(Cc4cccc(C(F)(F)F)c4)sc23)c1C` [Example 102, 1-[4-fluoro-2-[3-(trifluoromethyl)benzyl]-1-benzothiophen-7-yl]-N,3,5-trimethyl-1H-pyrazole-4-carboxamide], the activity at 1 µM stood at 99%.

As to `Cc1nn(-c2ccc(F)c3cc(Cc4cccc(C(F)(F)F)c4)sc23)c(C)c1C(=O)NC1CC1` [Example 103, N-cyclopropyl-1-[4-fluoro-2-[3-(trifluoromethyl)benzyl]-1-benzothiophen-7-yl]-3,5-dimethyl-1 H-pyrazole-4-carboxamide], the activity at 1 µM stood at 97%.

Take `Cc1nn(-c2cccc3sc(Cc4cccc(C(F)(F)F)c4)cc23)c(C)c1C(N)=O` [Example 104, 3,5-dimethyl-1-[2-[3-(trifluoromethyl)benzyl]-1-benzothiophen-4-yl]-1H-pyrazole-4-carboxamide]: the activity at 1 µM is 93%.

As for `Cc1nn(-c2cccc3sc(Cc4cccc(C(F)(F)F)c4)cc23)c(C)c1C(=O)NCC(N)=O` [Example 105, N-(2-amino-2-oxoethyl)-3,5-dimethyl-1-[2-[3-(trifluoromethyl)benzyl]-1-benzothiophen-4-yl]-1H-pyrazole-4-carboxamide], the activity at 1 µM was determined as 94%.

Take `Cc1nn(-c2cccc3sc(Cc4cccc(C(F)(F)F)c4)cc23)c(C)c1C(=O)NCCO` [Example 106, N-(2-hydroxyethyl)-3,5-dimethyl-1-[2-[3-(trifluoromethyl)benzyl]-1-benzothiophen-4-yl]-1H-pyrazole-4-carboxamide]: the activity at 1 µM turned out to be 97%.

Consider `Cc1nn(-c2cccc3sc(Cc4cc(F)cc(Cl)c4)cc23)c(C)c1C(=O)NCC(N)=O` [Example 107, N-(2-amino-2-oxoethyl)-1-[2-(3-chloro-5-fluorobenzyl)-1-benzothiophen-4-yl]-3,5-dimethyl-1H-pyrazole-4-carboxamide], for which the activity at 1 µM is 100%.

Consider `Cc1nn(-c2cccc3sc(Cc4cc(F)cc(Cl)c4)cc23)c(C)c1C(=O)NCCO` [Example 108, 1-[2-(3-chloro-5-fluorobenzyl)-1-benzothiophen-4-yl]-N-(2-hydroxyethyl)-3,5-dimethyl-1H-pyrazole-4-carboxamide], for which the activity at 1 µM is 93%.

On to `Cc1nn(-c2cccc3sc(Cc4cc(F)cc(Cl)c4)cc23)c(C)c1C(N)=O` [Example 109, 1-[2-(3-chloro-5-fluorobenzyl)-1-benzothiophen-4-yl]-3,5-dimethyl-1H-pyrazole-4-carboxamide], for which the activity at 1 µM amounted to 89%.

For `Cn1nc(-c2cccc3cc(Cc4cccc(C(F)(F)F)c4)sc23)cc1C(=O)NCC(N)=O` [Example 110, N-(2-amino-2-oxoethyl)-1-methyl-3-[2-[3-(trifluoromethyl)benzyl]-1-benzothiophen-7-yl]-1H-pyrazole-5-carboxamide], the activity at 1 µM is 94%.

Take `Cn1nc(-c2cccc3cc(Cc4cccc(C(F)(F)F)c4)sc23)cc1C(=O)NCCO` [Example 111, N-(2-hydroxyethyl)-1-methyl-3-[2-[3-(trifluoromethyl)benzyl]-1-benzathiophen-7-yl]-1H-pyrazole-5-carboxamide]: the activity at 1 µM came to 89%.

The assay is the same for the next values; noted with them: concentration of the test compound at which it shows 50% activity; human GPR52-expressing CHO(dhfr-) cells; read-out: GPR52 agonist activity EC50.
Consider `COCCNC(=O)c1cn(-c2cccc3cc(Cc4cccc(C(F)(F)F)c4)sc23)nc1C` [Example 14, N-(2-methoxyethyl)-3-methyl-1-[2-[3-(trifluoromethyl)benzyl]-1-benzothiophen-7-yl]-1H-pyrazole-4-carboxamide], for which the EC50 came to 14 nM.

Consider `Cc1nn(-c2ccc(F)c3cc(Cc4cc(F)cc(Cl)c4)sc23)c(CO)c1C(=O)NCCO` [Example 90, 1-[2-(3-chloro-5-fluorobenzyl)-4-fluoro-1-benzothiophen-7-yl]-N-(2-hydroxyethyl)-5-(hydroxymethyl)-3-methyl-1H-pyrazole-4-carboxamide], for which the concentration giving a half-maximal response (EC50) is 14 nM.

Regarding `Cc1nn(-c2cccc3cc(Cc4cc(F)cc(F)c4)sc23)c(C)c1C(=O)NCCO` [Example 99, 1-[2-(3,5-difluorobenzyl)-1-benzothiophen-7-yl]-N-(2-hydroxyethyl)-3,5-dimethyl-1H-pyrazole-4-carboxamide], the concentration for a half-maximal effect (EC50) was determined as 13 nM.

Consider `Cn1nc(-c2cccc3cc(Cc4cccc(C(F)(F)F)c4)sc23)cc1C(=O)NCCO` [Example 111, N-(2-hydroxyethyl)-1-methyl-3-[2-[3-(trifluoromethyl)benzyl]-1-benzathiophen-7-yl]-1H-pyrazole-5-carboxamide], for which the EC50 was found to be 38 nM.

Another assay has as its system methamphetamine-induced locomotor hyperactivity in mice. Briefly: Inhibition test of methamphetamine-induced locomotor hyperactivity. The following applies: test compound 10 mg/kg body weight orally, male ICR mice; methamphetamine 2 mg/kg s.c. 60 min later; locomotor activity counted over 150 min, versus vehicle group. Format: in vivo. Here is the method: Inhibition test of methamphetamine-induced locomotor hyperactivity
The compound of the present invention can be evaluated by assessing its capacity to inhibit methamphetamine-induced locomotor hyperactivity in mice. The method of Okuyama et al (Life Science, Vol. 65, p. 2109-2125 (1999)) was modified and used for testing the inhibition of methamphetamine-induced locomotor hyperactivity.
Locomotor activity was measured using a 32-channel locomotor activity measurement device MDC-LT (BrainScience Idea Co., Ltd.), which emits infrared beams from the top of a cage (30 x 40 x 20 cm). 6- to 8-Week-old male ICR mice were acclimated for at least 45 min in the measurement cages, and then either test compound (10 mg/kg body weight) dissolved in vehicle (0.5% aqueous methylcellulose solution) or the vehicle alone was orally administered. This oral administration was followed 60 min later by subcutaneous administration of methamphetamine (2 mg/kg body weight).
The number of times the laboratory animals passed through the infrared beams emitted inside the measurement cages in 150 min after administration of the test compound or vehicle was counted to quantify locomotor activity. The methamphetamine-induced locomotor hyperactivity inhibition rate (activity inhibition rate (%)) was calculated by the following equation. Activity inhibition rate (%) = {1-(locomotor activity of test compound treatment group after treatment with methamphetamine÷locomotor activity of vehicle treatment group after treatment with methamphetamine)}x 100 [formula] The results are shown in Table 3
For the compound `COCCNC(=O)c1cn(-c2cccc3cc(Cc4cccc(C(F)(F)F)c4)sc23)nc1C` [Example 14, N-(2-methoxyethyl)-3-methyl-1-[2-[3-(trifluoromethyl)benzyl]-1-benzothiophen-7-yl]-1H-pyrazole-4-carboxamide], the “Activity inhibition rate (%)” value is recorded as 53%.
